This is an account of results in patent publication US20230293500A1, “AK3287 PREPARATION, AND PREPARATION METHOD THEREFOR AND APPLICATION THEREOF” (SUZHOU ARK BIOPHARMACEUTICAL CO., LTD., priority 2020, published 2023).

The nature of this data set: PK analysis of AK3287 in plasma and skin by LC/MS after application on wound. It is filed as in vivo, Duroc pig. The protocol:
According to Table 4, 1 ml of the AK3287 emulsion or vehicle was administered to each of the wounds and smeared evenly on the wounds. The above administration treatment was carried out once daily. The time points for administration were set to start on Day 3 and end on Day 21.
3. Sample and analysis of PK test:
On Day 4, Day 9, Day 15, and Day 21 (i.e., on Day 1, Day 6, Day 12, and Day 18 after the first administration), a piece of circular skin was obtained by surgical incision with a skin biopsy punch (10 mm), after the animal was anesthetized and before the drug was smeared. Blood was sampled from the jugular vein and prepared as plasma. A total of 48 skin samples and 48 plasma samples were collected and subjected to PK analysis by LC/MS method.

For `Cn1cc(-c2cn(-c3ccc(OC(F)(F)F)cc3)c(=O)c3ncn(C)c23)cn1` [AK3287], under “plasma, application of emulsion on wound, FIG. 2”, the “amount of AK3287 entering the blood (plasma PK)” value is given as “a small amount of AK3287 could enter the blood”. Moreover, the “exposure in the skin, by dose group” value (skin, 0.5%, 2% and 8% emulsion groups, FIG. 3) is reported as “higher in the high-dose group”. Under “skin, application of emulsion on wound, FIG. 3”, the “distribution of AK3287 in skin tissues (skin PK)” value is given as “a majority of AK3287 remained in the skin tissues”.
